≈ marks a conversion by molar mass, not a printed value. Where two headings read alike, the source gives them in different places.
Experiments:
[1] = system: Bacillus cereus ATCC 10702; assay: Antibacterial spectrum, MIC by serial dilution on nutrient agar; format: cell-based; conditions: read-out: Minimum inhibitory concentration
[2] = system: Pseudomonas aeruginosa A3; assay: as above; format: cell-based; conditions: 37° C., 17 hours, read-out: Minimum inhibitory concentration
[3] = system: Pseudomonas aeruginosa PST1; assay: as above; format: cell-based; conditions: 37° C., 17 hours, read-out: Minimum inhibitory concentration
Escherichia coli W677 = assay: as above; format: cell-based; conditions: read-out: Minimum inhibitory concentration
in vivo = conditions: mouse, iv
Escherichia coli JR255 = assay: Antibacterial spectrum, MIC by serial dilution on nutrient agar; format: cell-based; conditions: read-out: Minimum inhibitory concentration
[4] = system: Escherichia coli K-12 C600 R135; assay: as above; format: cell-based; conditions: K12C600R135, 37° C., 17 hours, read-out: Minimum inhibitory concentration
Experimental: (§1) The antibacterial spectra of 3-O-demethylistamycin B.sesquicarbonate and 3-O-demethyl-2"-N-formimidoylistamycin B.disulphate.trihydrate are shown in Table 2, along with that of istamycin B for comparison purposes.
(§2) Minimum inhibitory concentrations (mcg/ml)*^1
(§3) *^1 Determined according to a standard serial dilution method on
(§4) nutrient agar plates which were incubated at 37° C. for 17 hours.

[5] = system: Escherichia coli K-12 ML1629; assay: as above; format: cell-based; conditions: K12ML1629, 37° C., 17 hours, read-out: Minimum inhibitory concentration
Experimental: as §1, §2, §3, §4

Shigella sonnei JS11746 = assay: as above; format: cell-based; conditions: 37° C., 17 hours, read-out: Minimum inhibitory concentration
Experimental: as §1, §2, §3, §4

[6] = system: Escherichia coli K-12 ML1630; assay: as above; format: cell-based; conditions: K12ML1630, 37° C., 17 hours, read-out: Minimum inhibitory concentration
Experimental: as §1, §2, §3, §4

[7] = system: Klebsiella pneumoniae 22#3038; assay: as above; format: cell-based; conditions: 37° C., 17 hours, read-out: Minimum inhibitory concentration
Experimental: as §1, §2, §3, §4

[8] = system: Shigella flexneri 4B JS11811; assay: as above; format: cell-based; conditions: 4BJS11811, 37° C., 17 hours, read-out: Minimum inhibitory concentration
Experimental: as §1, §2, §3, §4

[9] = system: Pseudomonas aeruginosa H11; assay: as above; format: cell-based; conditions: 37° C., 17 hours, read-out: Minimum inhibitory concentration
[10] = system: Escherichia coli K-12 LA290 R56; assay: as above; format: cell-based; conditions: K12LA290R56, 17 h, read-out: Minimum inhibitory concentration
mice = assay: Acute toxicity by intravenous injection in mice
[11] = system: Pseudomonas aeruginosa K-Ps 102; assay: Antibacterial spectrum, MIC by serial dilution on nutrient agar; format: cell-based; conditions: read-out: Minimum inhibitory concentration
[12] = system: Gram-negative and Gram-positive bacteria; assay: Antibacterial activity, overall statement; format: cell-based
Experimental: as §1, §3, §4

Escherichia coli NIHJ = assay: Antibacterial spectrum, MIC by serial dilution on nutrient agar; format: cell-based; conditions: read-out: Minimum inhibitory concentration
Proteus vulgaris OX19 = assay: as above; format: cell-based; conditions: 37° C., 17 hours, read-out: Minimum inhibitory concentration
[13] = system: Pseudomonas aeruginosa TI-13; assay: as above; format: cell-based; conditions: TI13, 37° C., 17 hours, read-out: Minimum inhibitory concentration
Salmonella typhi T-63 = assay: as above; format: cell-based; conditions: Salmonella enterica, 17 h, read-out: Minimum inhibitory concentration
[14] = system: Gram-negative and Gram-positive bacteria; conditions: relative to istamycin A; earlier work; cited from earlier work
Pseudomonas aeruginosa = assay: Antibacterial activity against Pseudomonas aeruginosa; format: cell-based
resistant bacteria = assay: Antibacterial activity against resistant bacteria; format: cell-based
[15] = ATCC10702, Bacillus cereus ATCC 10702, nutrient agar, 37° C., 17 hours
[16] = Escherichia coli W677, nutrient agar, 37° C., 17 hours
[17] = Escherichia coli JR255, nutrient agar, 37° C., 17 hours
[18] = KPS102, Pseudomonas aeruginosa K-Ps 102, nutrient agar, 37° C., 17 hours
[19] = Escherichia coli NIHJ, nutrient agar, 37° C., 17 hours
[20] = listed as 3-O-demethylistamycin B

SMILES	MIC [1, 15] [µg/mL]	MIC [2] [µg/mL]	MIC [3] [µg/mL]	MIC (Escherichia coli W677; [16]) [µg/mL]	MTD (in vivo) [mg/kg]	MIC (Escherichia coli JR255; [17]) [µg/mL]	MIC [4] [µg/mL]	MIC [5] [µg/mL]	MIC (Shigella sonnei JS11746) [µg/mL]	MIC [6] [µg/mL]	MIC [7] [µg/mL]	MIC [8] [µg/mL]	MIC [9] [µg/mL]	MIC [10] [µg/mL]	toxicity (in words) (mice)	MIC [11, 18] [µg/mL]	antibacterial activity (in words) [12]	MIC (Proteus vulgaris OX19) [µg/mL]	MIC [13] [µg/mL]	MIC (Salmonella typhi T-63) [µg/mL]	also measured
CNCC1CCC(N)C(OC2C(N)CC(O)C(N(C)C(=O)CNC=N)C2O)O1 (centres unmarked) [3-O-Demethyl-2"-N-formimidoylistamycin B]	1.56 (≈ 3.88 µM)	1.56 (≈ 3.88 µM)	25 (≈ 62.1 µM)	0.78 (≈ 1.94 µM)	160	0.78 (≈ 1.94 µM)	12.5 (≈ 31.1 µM)	1.56 (≈ 3.88 µM)	3.13 (≈ 7.78 µM)	1.56 (≈ 3.88 µM)	3.13 (≈ 7.78 µM)	3.13 (≈ 7.78 µM)	25 (≈ 62.1 µM)	1.56 (≈ 3.88 µM)	low toxicity to animals	12.5 (≈ 31.1 µM)	high antibacterial activity against a wide variety of Gram-negative and Gram-positive bacteria	0.39 (≈ 0.969 µM)	6.25 (≈ 15.5 µM)	0.78 (≈ 1.94 µM)	MIC (Escherichia coli NIHJ; [19]): 1.56 µg/mL (≈ 3.88 µM)
CNCC1CCC(N)C(OC2C(N)CC(OC)C(N(C)C(=O)CN)C2O)O1 (centres unmarked) [Istamycin B, istamycin B]	1.56 (≈ 4.01 µM)	6.25 (≈ 16 µM)	100 (≈ 257 µM)	1.56 (≈ 4.01 µM)	–	0.78 (≈ 2 µM)	12.5 (≈ 32.1 µM)	1.56 (≈ 4.01 µM)	3.13 (≈ 8.04 µM)	1.56 (≈ 4.01 µM)	3.13 (≈ 8.04 µM)	3.13 (≈ 8.04 µM)	50 (≈ 128 µM)	1.56 (≈ 4.01 µM)	–	50 (≈ 128 µM)	–	0.39 (≈ 1 µM)	25 (≈ 64.2 µM)	0.39 (≈ 1 µM)	antibacterial activity compared with istamycin A [14]: higher antibacterial activity than istamycin A; MIC (Escherichia coli NIHJ; [19]): 1.56 µg/mL (≈ 4.01 µM)
CNCC1CCC(N)C(OC2C(N)CC(O)C(N(C)C(=O)CN)C2O)O1 (centres unmarked) [3-O-Demethylistamycin B]	–	3.13 (≈ 8.34 µM)	50 (≈ 133 µM)	–	160	–	6.25 (≈ 16.6 µM)	3.13 (≈ 8.34 µM)	6.25 (≈ 16.6 µM)	3.13 (≈ 8.34 µM)	6.25 (≈ 16.6 µM)	6.25 (≈ 16.6 µM)	25 (≈ 66.6 µM)	3.13 (≈ 8.34 µM)	low toxicity to animals	–	high antibacterial activity	0.78 (≈ 2.08 µM)	12.5 (≈ 33.3 µM)	1.56 (≈ 4.15 µM)	effectiveness against Pseudomonas aeruginosa (in words) (Pseudomonas aeruginosa): effective against not only Pseudomonas aeruginosa; MIC ([1]; Bacillus cereus, ATCC10702, 17 h): 1.56 µg/mL (≈ 4.15 µM); MIC (Escherichia coli W677; Escherichia coli, W677, 17 h): 1.56 µg/mL (≈ 4.15 µM); MIC (Escherichia coli JR255; Escherichia coli, JR255, 17 h): 1.56 µg/mL (≈ 4.15 µM); effectiveness against a variety of resistant bacteria (in words) (resistant bacteria): effective against not only Pseudomonas aeruginosa but also a variety of resistant bacteria; toxicity (in words) (mice; [20]): low toxicity; MIC ([11]; Pseudomonas aeruginosa, KPS102, 17 h): 6.25 µg/mL (≈ 16.6 µM); antibacterial activity (in words) [12, 20]: high antibacterial activity against a wide variety of Gram-negative and Gram-positive bacteria; MIC (Escherichia coli NIHJ; Escherichia coli, 17 h): 1.56 µg/mL (≈ 4.15 µM)

— patent US4499083A, “3-O-Demethyl derivatives of the istamycin B series of compounds” (Zaidan Hojin Biseibutsu Kagaku Kenkyu Kai, priority 1980, dated 1985)
